Experimental data: patent US20050153395A1, “Unique integrin binding site in connective tissue growth factor (CTGF)” (CHILDREN'S HOSPITAL INC., priority 2003, published 2005)

What was measured:
[1] = system: hepatic stellate cells (HSC); assay: HSC adhesion assay on coated wells (CyQUANT fluorescence); assay type: cell-based, rat; settings: for effect of divalent cation on HSC adhesion to CTGF4: 10 mM cation, after EDTA; for inhibition of CTGF4-mediated HSC adhesion: wells coated 2 μg/ml CTGF4, antibody/IgG 25 μg/ml, heparin 2 μg/ml; for HSC adhesion supported by the coated substance: coated at 2 μg/ml
Protocol: CTGF4 is known to be expressed in hepatic stellate cells (HSC) and to induce proliferation and extracellular matrix (ECM) production in these cells. (Williams et al., J Hepatol 32, 754-761, 2000; Paradis et al., Lab Invest 82, 767-774, 2002). The following experiments were carried out to determine if HSCs adhere to CTGF. HSCs were isolated from normal Sprague-Dowley rate by sequential perfusion with pronase/collagenase and purified by density gradient separation as described in Vyas et al. (Gastroenterology 109: 889-898, 1995).
The cells were subsequently detached using 1 mM EDTA PBS (137 mM NaCl, 2.7 mM KCl, 4.3 mM Na2HPO4, 1.4 mM KH2PO4, pH 7.3), washed twice in DMEM and resuspended in serum free medium containing 0.5% BSA. The cells-were plated (1.25×10^4 cells/well) in a 96 well plate coated with one of the following: 2 μg/ml CTGF isoform (CTGF1-4, CTGF3-4, CTGF4), 1 μg/ml laminin, or 4 μg/ml vitronectin and incubated for 20 minutes at 37° C. Subsequently the cells were washed with PBS and the adherent cells were fixed with 10% formalin and stained with CyQUANT GR dye/cell lysis buffer (Molecular Probes , Eugene, Oreg.) according to the manufacturer's instructions. The number of cells that adhered to CTGF isoforms or ECM protein was quantified by measuring the sample fluorescence intensity at Ex/Em: 480/520 nm using a micro-plate reader (CytoFluor™ 2350).
To determine if the CTGF-mediated HSC adhesion was carried out through integrin receptors, the experiment described above were carried out in the presence and absence of 10 mM EDTA. […] It is widely believed that Mn^2+ induces conformational shifts that mimic the physiological activation of β1 and β3 integrins (Roberts et al., J Biol Chem 278: 1975-1985, 2003, van der Pauw et al., J Periodontal Res 37: 317-323, 2002) as Mn^2+-induced activation leads to enhanced ligand-binding affinity and cell adhesion (Mould et al., J Biol Chem 277: 19800-19805, 2002, Loftus & Liddington J Clin Invest 100: S77-81, 1997, Lin et al., J Biol Chem 272: 14236-14243, […]).
Synthetic peptides GRGDsp (1 mM), GRGEsp (1 mM), Echistatin (2 μM) or vehicle buffer alone were added to the, HSC culture medium 30 minutes prior to plating.
In addition, adhesion assays as described in Example 1 were carried out in CTGF4 coated plates in the presence and absence of monoclonal antibody specific for αvβ3 (LM609).

[2] = system: pancreatic stellate cells (PSC); assay: PSC adhesion assay on coated wells; assay type: cell-based, rat; settings: for restoration of CTGF-mediated PSC adhesion after EDTA: 10 mM cation, 5 mM EDTA; for inhibition of PSC adhesion to CTGF4: 2 μg/ml CTGF4 coat, EDTA 5 mM, antibodies 25 μg/ml, heparin 2 μg/ml, peptides 35 μM; for PSC adhesion supported by the coated substance: coated at 2 μg/ml; for inhibition of FN-mediated PSC adhesion: fibronectin coat
Text: Rat PSCs were isolated by a modification of the method described by Phillips et al., Gut; 52:677-82, 2003. Briefly, pancreatic tissue was digested in situ with 0.03% collagenase P (Roche, Indianapolis, Ind.) in HBSS by perfusion through the thoracic aorta. This protocol was approved by the Institutional Animal Care and Use Committee of Children's Research Institute, Columbus, Ohio. The tissue was pooled, minced with scissors, and then digested with 0.05% collagenase P, 0.02% protease XIV (Sigma, St. Louis), and DNase I (Roche, Indianapolis, Ind.) in HBSS. The resulting cell suspension was centrifuged in a 12% Optiprep gradient at 1400 g for 14 minutes. Stellate cells separated into a hazy band just above the interface of a the gradient and the aqueous buffer. This band was harvested, and the cells washed and resuspended in DMEM supplemented with 25 mM Hepes buffer, 10% FBS, and 100 U/ml penicillin in, 100 μg/ml streptomycin. The, cells were maintained at 37° C. in a humidified atmosphere of 5% CO2/95% air.
The ability of activated PSC to adhere to non-tissue culture plastic microtiter wells coated with recombinant CTGF1-4, CTGF3-4 or CTGF4 was investigated. The solid phase binding assay was carried out as described in Example 2. […] To assess the possibility that CTGF-mediated PSC adhesion involved cell surface integrins, the effect of divalent cations on cell adhesion was examined, as described in Example 2. […]
Because CTGF is a heparin-binding protein, this property was further investigated.
To identify the peptides that bind to PSCs, cell adhesion assays were carried out as described in Example 3.
To further investigate the peptide binding, P2 or P5 (10 μM) or vehicle buffer alone (no add) were added to PSC cell suspensions for 30 minutes at room temperature.

integrin α5β1 = integrin α5β1 (Homo sapiens, UniProt P05556+P08648); assay: Solid phase ELISA of integrin α5β1 binding; settings: for reversal of EDTA inhibition of α5β1 binding to CTGF4: 10 mM cation; for inhibition of cell-free binding of integrin α5β1 to FN: FN 4 μg/ml
integrin α5β1, sequence (P08648 42-894 limits assumed): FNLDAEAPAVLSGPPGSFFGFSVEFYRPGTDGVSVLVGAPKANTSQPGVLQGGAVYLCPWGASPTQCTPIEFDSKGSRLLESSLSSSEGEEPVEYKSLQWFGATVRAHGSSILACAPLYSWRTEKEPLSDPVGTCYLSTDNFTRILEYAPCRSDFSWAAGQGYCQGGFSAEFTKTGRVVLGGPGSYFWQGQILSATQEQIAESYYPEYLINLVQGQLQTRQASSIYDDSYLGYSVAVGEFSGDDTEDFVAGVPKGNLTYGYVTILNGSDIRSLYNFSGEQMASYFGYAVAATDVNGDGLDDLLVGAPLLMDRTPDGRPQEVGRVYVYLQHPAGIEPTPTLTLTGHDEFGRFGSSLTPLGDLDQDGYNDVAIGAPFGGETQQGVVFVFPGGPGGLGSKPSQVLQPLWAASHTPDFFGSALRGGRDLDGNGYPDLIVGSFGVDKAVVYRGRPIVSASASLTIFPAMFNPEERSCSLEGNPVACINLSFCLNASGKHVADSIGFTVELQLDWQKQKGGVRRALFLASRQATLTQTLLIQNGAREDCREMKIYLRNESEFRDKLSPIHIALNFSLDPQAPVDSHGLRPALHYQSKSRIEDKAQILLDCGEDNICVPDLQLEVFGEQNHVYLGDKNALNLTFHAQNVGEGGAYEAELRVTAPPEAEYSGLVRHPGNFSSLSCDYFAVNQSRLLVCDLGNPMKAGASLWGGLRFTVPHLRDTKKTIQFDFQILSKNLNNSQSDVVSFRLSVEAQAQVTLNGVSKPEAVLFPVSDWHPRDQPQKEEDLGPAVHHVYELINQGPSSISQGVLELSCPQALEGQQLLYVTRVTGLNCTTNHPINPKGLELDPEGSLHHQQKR
integrin α5β1, sequence (P08648 895-1049 partner limits assumed): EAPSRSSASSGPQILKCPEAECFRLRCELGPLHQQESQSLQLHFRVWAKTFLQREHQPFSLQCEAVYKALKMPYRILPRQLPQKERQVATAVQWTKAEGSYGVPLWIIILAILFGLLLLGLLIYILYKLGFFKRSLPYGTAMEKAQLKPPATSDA
integrin α5β1, sequence (P05556 21-798): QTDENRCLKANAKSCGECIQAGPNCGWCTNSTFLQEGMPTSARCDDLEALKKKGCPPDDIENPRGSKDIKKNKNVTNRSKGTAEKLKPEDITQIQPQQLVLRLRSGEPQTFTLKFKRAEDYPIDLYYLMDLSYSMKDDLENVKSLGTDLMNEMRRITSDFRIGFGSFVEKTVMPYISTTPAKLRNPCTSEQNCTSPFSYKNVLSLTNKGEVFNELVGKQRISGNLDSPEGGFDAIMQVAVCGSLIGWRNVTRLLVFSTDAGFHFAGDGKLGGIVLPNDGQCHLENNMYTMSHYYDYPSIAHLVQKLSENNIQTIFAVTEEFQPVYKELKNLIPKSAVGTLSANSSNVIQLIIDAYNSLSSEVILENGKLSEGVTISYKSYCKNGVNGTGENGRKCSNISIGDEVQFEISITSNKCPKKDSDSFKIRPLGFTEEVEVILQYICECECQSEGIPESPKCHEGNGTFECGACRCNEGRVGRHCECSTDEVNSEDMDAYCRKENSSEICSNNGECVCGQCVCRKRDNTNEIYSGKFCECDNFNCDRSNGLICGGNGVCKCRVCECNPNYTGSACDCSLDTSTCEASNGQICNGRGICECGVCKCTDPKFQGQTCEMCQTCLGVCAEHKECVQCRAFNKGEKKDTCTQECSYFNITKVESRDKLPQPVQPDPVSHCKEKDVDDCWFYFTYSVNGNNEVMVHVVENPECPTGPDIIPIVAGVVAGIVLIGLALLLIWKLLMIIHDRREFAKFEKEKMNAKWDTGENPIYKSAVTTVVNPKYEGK
Protocol: In a second approach, a solid phase binding assay was used in which CTGF1-4 or FN were individually coated onto microtiter wells that were subsequently incubated with purified integrin α5β1. The presence of immobilized integrin α5β1 was detected by ELISA using an anti-integrin α5β1 antibody similar to the methods described in Example 3 above. In addition, CTGF1-4 bound to integrin α5β1 in a dose-dependent manner, with maximal binding at 2 μg/ml CTGF. This level of CTGF1-4 (2 μg/ml) binding was the same as that elicited by 2 μg/ml FN, a well known ligand of integrin α5β1. In a similar experiment, 2 μg/ml of CTGF1-4;CTGF3-4 or CTGF4 were individually precoated onto microtiter wells. Using the solid-phase assay, integrin α5β1 bound to CTGF1-4, CTGF3-4 or CTGF4 See FIG. 5 (Panel B).
To directly analyze whether α5β1 integrin binds to CTGF4, microtiter wells coated with CTGF4 (2 μg/ml) or FN (4 μg/ml) were used in an ELISA assay to detect integrin binding, as described in Example 3. For these assays, 1 μg/ml integrin α5β1, alone or in the presence of 35 μM of P2peptide (CTGF[257-272]) and 35 μM of P5 peptide (CTGF [285-291]), were added to the precoated plates. […] The binding between CTGF4 and integrin α5 β1 was blocked by peptide P5 (CTGF [285-291]) or peptide P2 (CTGF[257-272]). […]

CTGF promoter = CTGF promoter luciferase reporter pCCN2-Luc in PSCs; assay type: cell-based, rat; settings: P<0.01 compared with no stimulation
Protocol: TGF-β1 is a well characterized transcriptional activator of CTGF in other cell types. To further examine the mechanism by which TGF-β1 and other fibrogenic stimulators could influence CTGF production in PSCs, CTGF promoter activity in PSCs was evaluated using the luciferase reporter, pCCN2-Luc, as described in Gao et al., (J Hepatol 2004;40:431-8).

integrin αvβ3 = integrin αvβ3 (Homo sapiens, UniProt P05106+P06756); assay: Solid phase ELISA of integrin αvβ3 binding; settings: for inhibition of αvβ3 binding to CTGF4: 35 μM peptide pre-incubated with 1 μg/ml αvβ3
integrin αvβ3, sequence (P06756 31-889 limits assumed): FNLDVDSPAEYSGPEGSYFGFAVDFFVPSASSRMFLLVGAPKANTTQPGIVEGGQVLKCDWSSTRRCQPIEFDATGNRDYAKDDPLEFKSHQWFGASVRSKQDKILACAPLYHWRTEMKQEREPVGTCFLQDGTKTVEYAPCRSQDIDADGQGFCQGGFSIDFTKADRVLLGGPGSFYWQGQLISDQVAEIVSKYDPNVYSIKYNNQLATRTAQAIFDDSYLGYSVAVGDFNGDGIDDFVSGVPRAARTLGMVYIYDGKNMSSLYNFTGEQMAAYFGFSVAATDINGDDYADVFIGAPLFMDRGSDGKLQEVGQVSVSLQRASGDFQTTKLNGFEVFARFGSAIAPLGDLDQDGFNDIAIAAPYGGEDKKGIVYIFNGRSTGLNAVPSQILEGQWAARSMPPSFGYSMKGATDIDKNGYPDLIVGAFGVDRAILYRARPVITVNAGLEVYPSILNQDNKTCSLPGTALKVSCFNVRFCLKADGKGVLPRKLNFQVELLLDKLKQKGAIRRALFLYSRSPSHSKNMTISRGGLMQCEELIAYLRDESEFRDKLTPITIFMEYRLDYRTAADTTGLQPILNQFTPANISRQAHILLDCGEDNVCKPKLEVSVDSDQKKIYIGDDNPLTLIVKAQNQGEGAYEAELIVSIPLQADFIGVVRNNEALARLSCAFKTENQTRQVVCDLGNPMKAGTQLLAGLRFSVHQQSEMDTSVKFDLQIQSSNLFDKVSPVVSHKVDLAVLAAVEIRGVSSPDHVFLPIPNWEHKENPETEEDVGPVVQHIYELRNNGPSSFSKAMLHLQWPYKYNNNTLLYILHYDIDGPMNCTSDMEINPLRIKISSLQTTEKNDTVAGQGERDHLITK
integrin αvβ3, sequence (P06756 891-1048 partner limits assumed): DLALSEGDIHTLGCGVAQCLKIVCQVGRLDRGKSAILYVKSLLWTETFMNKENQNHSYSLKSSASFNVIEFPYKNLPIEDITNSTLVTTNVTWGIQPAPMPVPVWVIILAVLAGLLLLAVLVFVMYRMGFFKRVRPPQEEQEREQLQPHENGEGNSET
integrin αvβ3, sequence (P05106 27-788): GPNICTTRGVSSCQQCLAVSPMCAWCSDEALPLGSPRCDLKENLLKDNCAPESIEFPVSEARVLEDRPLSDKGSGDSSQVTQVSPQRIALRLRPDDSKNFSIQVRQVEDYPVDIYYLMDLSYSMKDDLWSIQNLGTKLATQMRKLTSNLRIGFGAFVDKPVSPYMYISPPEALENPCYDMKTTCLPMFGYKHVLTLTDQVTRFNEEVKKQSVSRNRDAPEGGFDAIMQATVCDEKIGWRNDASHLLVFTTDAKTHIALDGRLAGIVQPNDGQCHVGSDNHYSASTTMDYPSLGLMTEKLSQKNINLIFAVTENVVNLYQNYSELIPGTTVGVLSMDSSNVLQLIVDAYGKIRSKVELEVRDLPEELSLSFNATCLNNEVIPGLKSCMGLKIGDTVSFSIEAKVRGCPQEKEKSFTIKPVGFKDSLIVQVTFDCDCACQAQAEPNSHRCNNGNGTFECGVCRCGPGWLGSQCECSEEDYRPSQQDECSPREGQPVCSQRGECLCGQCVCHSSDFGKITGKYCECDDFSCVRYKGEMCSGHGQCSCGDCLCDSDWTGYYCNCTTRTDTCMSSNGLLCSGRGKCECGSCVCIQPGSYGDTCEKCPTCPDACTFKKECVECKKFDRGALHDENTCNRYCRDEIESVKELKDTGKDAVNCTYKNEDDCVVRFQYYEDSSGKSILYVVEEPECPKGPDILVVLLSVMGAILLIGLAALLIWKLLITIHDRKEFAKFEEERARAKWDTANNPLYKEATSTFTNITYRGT
Protocol: Solid phase binding studies were also performed to investigate the binding of CTGF isoforms and αvβ3. Each CTGF isoform or vitronectin was individually coated onto microtiter wells at different concentrations, and the subsequent binding of αvβ3 was detected by ELISA using an anti-human αvβ3 monoclonal antibody. […] Saturation of binding occurred at 2 μg/ml for each CTGF isoform and 4 μg/ml for vitronectin.
In order to identify the αvβ3 binding site in CTGF4, eighteen synthetic peptides spanning the entire C-terminal region of CTGF4 (residues 246-349 of SEQ ID NO: 1) were synthesized and used as potential blocking agents in the solid phase binding studies as described in Example 3. Microtiter wells (Dynex Technology) were pre-coated with different CTGF isoforms at desired concentrations at 4° C. for 16 hours, and then blocked with 2% BSA at room temperature for 2 hours. The plates were washed, four times with PBS, pH 7.3, containing 1 mM CaCl2 and 1 mM MgCl2. Integrin αvβ3 (1 μg/ml) was pre-incubated with each synthetic peptide for 1 hour in blocking solution, and then added to each well, and incubated at room temperature for 3 hours. Integrin αvβ3 was detected by successive incubation with anti-human αvβ3 monoclonal antibody diluted in blocking solution (1:1000), and followed by HRP-conjugated goat anti-mouse IgG (1:4000). The color reaction was developed using the horseradish peroxidase ELISA reagents (Chemicon), and the absorbance at 450 nm was measured using Bio Assay Reader (HTS700).
The ability of mutant CTGF4 to bind to integrin αvβ3 was assessed by solid phase ELISA which measured the ability of purified integrin αvβ3 to bind to the CTGF4 mutants.

PSCs [3] = assay: PSC chemotaxis (migration) assay in culture insert; assay type: cell-based, rat; settings: substance in lower chamber
Protocol: To examine whether CTGF plays a role in PSC migration, a chemotaxis assay was carried out in which the migratory behavior of PSCs in the upper chamber of a culture insert was assessed following addition of CTGF to the lower chamber. […] PSC migration was also promoted by FN, PDGF or TGF-β1.

PSCs [4] = assay: PSC DNA synthesis, [3H]thymidine incorporation; assay type: cell-based, rat; settings: 24 hours; CTGF1-4 effect in 0.1% serum, not in serum-free medium
Protocol: To measure the effect of CTGF on cell proliferation, DNA synthesis was measured by ^3H incorporation in PSCs. The cells were incubated for 24 hours with 0.2 μCi [^3H] thymidine in each well (24-well plate). The incorporation of [^3H] thymidine into PSC DNA was determined using a scintillation counter after the cells had been washed with PBS, fixed with 10% methanol, treated with cold 5% trichloroacetic acid, and lysed in 0.3 N NaOH.

[5] = EDTA 10 mM, GRGDsp 1 mM, Echistatin 2 μM

For `[Ca+2]` [Ca^2+], the “effect of divalent cation on HSC adhesion to CTGF4” value (from here on “effect of divalent cation”) [1] was “completely abolished”, the “restoration of CTGF-mediated PSC adhesion after EDTA” value [2] was “restored” and the “reversal of EDTA inhibition of α5β1 binding to CTGF4” value (integrin α5β1) was “reversed”.

For `[Mg+2]` [Mg^2+], the “effect of divalent cation” value [1] was “restored”, the “restoration of CTGF-mediated PSC adhesion after EDTA” value [2] was “restored” and the “reversal of EDTA inhibition of α5β1 binding to CTGF4” value (integrin α5β1) was “reversed”.

For `[Mn+2]` [Mn^2+], the “effect of divalent cation” value [1] was “restored”.

With `CC=O` [acetaldehyde] the “activity of pCCN2-Luc in PSC” value (CTGF promoter) was “significantly increased”.

`CCO` [ethanol] was tested, and the “activity of pCCN2-Luc in PSC” value (CTGF promoter) was “significantly increased”.

For `[Na+].[O-][Cl+2]([O-])[O-]` [sodium chlorate], the “inhibition of CTGF4-mediated HSC adhesion” value [1, 5] was “Inability of HSC to adhere to CTGF4” and the “inhibition of vitronectin-mediated HSC adhesion” value ([1]; wells coated 4 μg/ml vitronectin) was “unaffected”.

For “CTGF[259-272]: CTGF4 peptide that covers 87.5% of the sequence of peptide CTGF[257-272] (TPKISKPIKFELSG)”, the “inhibition of αvβ3 binding to CTGF4” value (integrin αvβ3) was 67%.

In the case of “EENIKKGKKCIRTP (listed as Homo sapiens) [CTGF[247-260]]”, the “HSC adhesion supported by the coated substance” value [1] was “no adhesion ability”.

With GRGDsp the “inhibition of CTGF1-4-mediated HSC adhesion” value ([1]; wells coated 2 μg/ml CTGF1-4, EDTA 10 mM, GRGDsp 1 mM, Echistatin 2 μM) was 45%, the “inhibition of CTGF3-4-mediated HSC adhesion” value ([1]; wells coated 2 μg/ml CTGF3-4, EDTA 10 mM, GRGDsp 1 mM, Echistatin 2 μM) was 51% and the “inhibition of CTGF4-mediated HSC adhesion” value [1, 5] was 58%.

In the case of GVCTDGR [Peptide P5], the “inhibition of PSC adhesion to CTGF4” value [2] was “completely inhibited”, the “PSC adhesion supported by the coated substance” value [2] was “able to support the adhesion” and the “inhibition of FN-mediated PSC adhesion” value [2] was “able to block”. For the same molecule, the “inhibition of binding between CTGF4 and integrin α5β1” value (integrin α5β1; peptides 35 μM, EDTA 5 mM) was “blocked” and the “inhibition of cell-free binding of integrin α5β1 to FN” value (integrin α5β1; peptides 35 μM) was “blocked”.

In the case of “IRTPAAAAPIKFELSG [Mutant 2, mutant CTGF4 protein with K261A, I262A, S263A, K264A]”, the “HSC adhesion relative to wild-type CTGF4” value ([1]; mutant CTGF4 proteins) was “completely unable to support HSC adhesion”.

In the case of IRTPKISKPIKFELSG [CTGF[257-272]], the “HSC adhesion to coated peptide, saturation” value [1] was 2 µg/mL, the “HSC adhesion supported by the coated substance” value [1] was “promoted HSC adhesion in a concentration-dependent manner” and the “inhibition of αvβ3 binding to CTGF4” value (integrin αvβ3) was “completely inhibited”. For the same molecule, the “inhibition of αvβ3 binding to vitronectin” value (integrin αvβ3; 35 μM peptide, 4 μg/ml VN coat) was 85%, the “inhibition of PSC adhesion to CTGF4” value [2] was “completely inhibited” and the “PSC adhesion supported by the coated substance” value [2] was “able to support the adhesion”. For the same molecule, the “inhibition of FN-mediated PSC adhesion” value [2] was “unaffected” and the “inhibition of cell-free binding of integrin α5β1 to FN” value (integrin α5β1; peptides 35 μM) was “did not block”.

In the case of PDGF, the “activity of pCCN2-Luc in PSC” value (CTGF promoter) was “significantly increased”, the PSC migration (PSCs [3]) was “promoted” and the “PSC proliferation (DNA synthesis)” value (PSCs [4]) was “significantly enhanced”.

With chondroitinase ABC the “inhibition of CTGF4-mediated HSC adhesion” value [1, 5] was “no effect”.

With “vitronectin: ECM protein, known ligand of αvβ3 [reference compound]” the “saturation of αvβ3 binding at coating concentration” value (integrin αvβ3; 1 μg/ml integrin αvβ3) was 4 µg/mL.
